Assay results reported in article PMC2710984 (International Journal of Peptide Research and Therapeutics, 2006).
“And” between values parts separate entries of the source, which are not always exact repeats. Equal entries are not always repeated. Square brackets hold non-standard residues; d marks the D form. Ends that are not written are not given here. Peptide text beside a SMILES is read from it. Abu = CC[C@H](N)C(=O)O; Lac = C[C@H](O)C(=O)O

biological target: XIAP BIR3 (Homo sapiens, UniProt P98170); experiment: Peptide–BIR3 binding assay; settings: not given
Sequence (P98170 241-356 limits assumed): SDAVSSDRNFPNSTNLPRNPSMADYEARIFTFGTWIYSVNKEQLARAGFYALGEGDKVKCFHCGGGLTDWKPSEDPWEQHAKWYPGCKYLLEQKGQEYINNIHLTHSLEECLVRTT

Q: Which IC50 does the source give for `CC(C)[C@H](NC(=O)[C@H](C)N)C(=O)N1CCC[C@H]1C(N)=O` [Compound 5, AVP] (H-Ala-Val-Pro-NH2) here?
A: > 10000 nM

Q: With `CC(C)[C@H](NC(=O)[C@H](C)N)C(=O)N[C@@H](C)C(=O)N[C@@H](Cc1ccccc1)C(N)=O` [Compound 6, AVAF] as the compound, how does the IC50 read?
A: 750 nM

Q: Which IC50 does the source give for `CC[C@H](C)[C@H](NC(=O)[C@H](C)N)C(=O)N[C@@H](C)C(=O)N[C@@H](Cc1ccc(O)cc1)C(N)=O` [Compound 8, AIAY] (H-AIAY-NH2) here?
A: 340 nM

Q: With `CC[C@H](N)C(=O)N[C@H](C(=O)N1CCC[C@H]1C(=O)N[C@@H](Cc1ccccc1)C(N)=O)C(C)C` [Compound 9, Abu–VPF] (H-[Abu]VPF-NH2) as the compound, how does the IC50 read?
A: 120 nM

Q: Which IC50 does the source give for `CC(C)[C@H](NC(=O)[C@@H](N)CO)C(=O)N1CCC[C@H]1C(=O)N[C@@H](Cc1ccccc1)C(N)=O` [Compound 10, SVPF] (H-SVPF-NH2) here?
A: 1000 nM

Q: Which IC50 does the source give for `CC(C)[C@H](NC(=O)[C@H](C)O)C(=O)N1CCC[C@H]1C(=O)N[C@@H](Cc1ccccc1)C(N)=O` [Compound 14, Lac–VPF] (H-[Lac]VPF-NH2) here?
A: > 1600 nM

Q: Which IC50 does the source give for `CC(C)C[C@H](NC(=O)[C@H](C)N)C(=O)N1CCC[C@H]1C(=O)N[C@@H](Cc1ccccc1)C(N)=O` [Compound 15, ALPF] (H-ALPF-NH2) here?
A: 180 nM

Q: For `CC[C@H](C)[C@H](NC(=O)[C@H](C)N)C(=O)N1CCC[C@H]1C(=O)N[C@@H](Cc1ccccc1)C(N)=O` [Compound 16, AIPF] (H-AIPF-NH2), which IC50 is on record?
A: 80 nM

Q: For `C[C@H](N)C(=O)N[C@H](C(=O)N1CCC[C@H]1C(=O)N[C@@H](Cc1ccccc1)C(N)=O)[C@@H](C)O` [Compound 17, ATPF] (H-ATPF-NH2), which IC50 is on record?
A: 200 nM

Q: Which IC50 does the source give for `CC(C)[C@H](NC(=O)[C@H](C)N)C(=O)N1C[C@H](O)C[C@H]1C(=O)N[C@@H](Cc1ccccc1)C(N)=O` [Compound 20, AV–Hyp–F] here?
A: 1000 nM

Q: With AVPIA-NH2 [Compound 3, AVPIA] as the compound, how does the IC50 read?
A: 300 nM

same assay, conditions: IC50, inhibition of Smac–BIR3 interaction, FMAT

Q: Which IC50 does the source give for AVPIAQ-NH2 [Compound 2, AVPIAQ] here?
A: 270 nM

Q: For AVPIAQK-NH2 [Compound 1, AVPIAQK], which IC50 is on record?
A: 400 nM and 390 nM

biological target: GST–BIR3 (Homo sapiens, UniProt P98170); experiment: not given; type: biochemical; settings: not given
Sequence (P98170 241-356 limits assumed): as above

Q: Which IC50 does the source give for AVPFAQK-NH2 [AVPFAQK] here?
A: 2000 nM

Q: Which IC50 does the source give for AVPIAQK-NH2 [Compound 1, AVPIAQK] here?
A: 3000 nM

test system: XIAP BIR3 domain; experiment: not given; settings: ref Nikolovska-Coleska et al., 2004; cited from earlier work

Q: With `CCCCCCCCCCCC1=C(O)C(=O)C=C(O)C1=O` [Embelin] as the compound, how does the IC50 read?
A: 4100 nM
